{"source": "patent US9175031B2", "about": "“Ketolide compounds” (WOCKHARDT LIMITED, priority 2010, dated 2015)", "key": {"H influenzae": {"tested_on": "H influenzae", "experiment": "MIC, CLSI agar dilution method", "assay_type": "cell-based", "details": "18 hrs at 37° C.", "protocol": "(§1) The antibacterial activity of compounds of the invention was evaluated by determining the minimal inhibitory concentration (MIC) according to standard CLSI agar dilution method. The media used for preculture and main culture were Tryptic Soya broth (Difco) and Mueller Hinton medium (Difco), respectively. The Mueller Hinton agar was supplemented with 5% sheep blood for streptococci and pneumococci, and with haemoglobin as well as NAD (nicotinamide adenine dinucleotide) for Haemophilus influenzae, respectively. Overnight cultures were diluted with buffered saline (pH 7.2) to the final cell density of 5×10^6-10^7 CFU/ml, and each bacterial suspension was applied with a replicator (Denley's multipoint inoculator, UK) onto a series of Mueller-Hinton agar plates containing antibacterial agents at various concentrations. Final inoculum was approximately 10^4 CFU/spot. The plates were incubated for 18 hrs at 37° C. The MIC was defined as the lowest concentration of an antibacterial agent that inhibits the development of visible microbial growth on agar."}, "[1]": {"tested_on": "S pneumoniae 3773, a high level ermb strain", "experiment": "MIC, CLSI agar dilution method", "assay_type": "cell-based", "details": "S pneumoniae 3773, high level ermb strain, 18 hrs at 37° C.", "protocol": "as §1"}, "[2]": {"tested_on": "S pneumoniae ermb strains", "experiment": "MIC, CLSI agar dilution method", "assay_type": "cell-based", "details": "18 hrs at 37° C.", "protocol": "as §1"}, "S pneumoniae mef strains": {"tested_on": "S pneumoniae mef strains", "experiment": "MIC, CLSI agar dilution method", "assay_type": "cell-based", "details": "18 hrs at 37° C.", "protocol": "as §1"}, "[3]": {"tested_on": "S pneumoniae sensitive strains", "experiment": "MIC, CLSI agar dilution method", "assay_type": "cell-based", "details": "18 hrs at 37° C.", "protocol": "as §1"}, "[4]": {"tested_on": "S pyogene 3530, a high level ermb strain", "experiment": "MIC, CLSI agar dilution method", "assay_type": "cell-based", "details": "S pyogene 3530, high level ermb strain, 18 hrs at 37° C.", "protocol": "as §1"}, "S pneumoniae 3773": {"tested_on": "S pneumoniae 3773", "experiment": "In vivo oral efficacy (ED50) in mice intraperitoneally infected with S pneumoniae 3773", "details": "Mus musculus, two doses at 1 hour and 4 hour after intraperitoneal infection with S pneumoniae 3773, survival on day seven, read-out: ED50 (Dose protecting 50% of infected mice)", "protocol": "The in vivo efficacy of compounds of the invention was evaluated by determining ED50 by oral administration of compounds to group of mice (6 mice/dose group) intraperitoneally infected with (5×10^7-1×10^8 CFU/mouse) S pneumoniae 3773. Two doses of compounds of the invention and Telithromycin were administered at 1 hour and 4 hour after infection. On day seven, percentage of animals surviving in various dose groups were employed to determine ED50 (Dose protecting 50% of infected mice)"}}, "data": [{"smiles": "CC[C@@H]1OC(=O)[C@H](C)C(=O)[C@H](C)[C@@H](OC2O[C@H](C)C[C@H](N(C)C)[C@H]2O)[C@](C)(OC)C[C@@H](C)C(=O)[C@H](C)[C@H]2[C@H](/C(N)=N/O[C@@H](C)c3nnc(-c4ccccn4)s3)C(=O)O[C@@]21C", "note": "(stereo partly drawn) [Example 33, (11S,21R)-3-decladinosyl-11,12-dideoxy-6-O-methyl-3-oxo-12,11-{oxycarbonyl-[E-N-[1-(5-pyridin-2-yl-1,3,4-thiadiazol-2-yl)-(S)-ethoxy]-carboxamidino]methylene}-erythromycin A]", "values": [{"measurement": "melting point", "result": "135 to 137", "unit": "°C"}]}, {"smiles": "CC[C@@H]1OC(=O)[C@@](C)(F)C(=O)[C@H](C)[C@@H](OC2O[C@H](C)C[C@H](N(C)C)[C@H]2O)[C@](C)(OC)C[C@@H](C)C(=O)[C@H](C)[C@H]2[C@H](/C(N)=N/OCc3ncc(-c4ccon4)cn3)C(=O)O[C@@]21C", "note": "(stereo partly drawn) [Example 3, (11S,21R)-3-decladinosyl-11,12-dideoxy-2-fluoro-6-O-methyl-3-oxo-12,11-{oxycarbonyl-[E-N-[(5-isoxazol-3-yl-pyrimidin-2-yl)-methoxy]-carboxamidino]methylene}-erythromycin A]", "values": [{"measurement": "melting point", "result": "196 to 197", "unit": "°C"}]}, {"smiles": "CC[C@@H]1OC(=O)[C@@](C)(F)C(=O)[C@H](C)[C@@H](OC2O[C@H](C)C[C@H](N(C)C)[C@H]2O)[C@](C)(OC)C[C@@H](C)C(=O)[C@H](C)[C@H]2[C@H](/C(N)=N/OCc3nnc(-c4ncccn4)s3)C(=O)O[C@@]21C", "note": "(stereo partly drawn) [Example 7, (11S,21R)-3-decladinosyl-11,12-dideoxy-2-fluoro-6-O-methyl-3-oxo-12,11-{oxycarbonyl-[E-N-[(5-pyrimidin-2-yl-1,3,4-thiadiazol-2-yl)-methoxy]-carboxamidino]methylene}-erythromycin A]", "values": [{"measurement": "melting point", "result": "192 to 194", "unit": "°C"}]}, {"smiles": "CC[C@H]1OC(=O)[C@H](C)C(=O)[C@H](C)[C@@H](O[C@@H]2O[C@H](C)C[C@H](N(C)C)[C@H]2O)[C@](C)(OC)C[C@@H](C)C(=O)[C@H](C)[C@H]2N(CCCCn3cnc(-c4cccnc4)c3)C(=O)O[C@]12C", "note": "[Telithromycin]", "values": [{"measurement": "MIC", "setting": "H influenzae", "result": "4 to 8", "unit": "µg/mL"}, {"measurement": "MIC", "setting": "[1]", "result": 4, "unit": "µg/mL"}, {"measurement": "MIC", "setting": "[2]", "result": "0.007 to 0.5", "unit": "µg/mL"}, {"measurement": "MIC", "setting": "S pneumoniae mef strains", "result": "0.015 to 1", "unit": "µg/mL"}, {"measurement": "MIC", "setting": "[3]", "result": "0.007 to 0.015", "unit": "µg/mL"}, {"measurement": "MIC", "setting": "[4]", "result": 16, "unit": "µg/mL"}, {"measurement": "ED50", "setting": "S pneumoniae 3773", "result": "75 to 100", "unit": "mg/kg"}]}]}
